Test results as given in patent US8609710B2, “Cycloalkyl-substituted imidazole derivative” (Daiichi Sankyo Company, Limited, priority 2010, dated 2013).
Counter-ions that a name gives are not always drawn.

Tests used:
TAFIa = TAFIa (Homo sapiens (Human), UniProt Q96IY4); test: Determination of TAFIa enzyme inhibitory activity; assay type: biochemical; settings: substrate furylacryloyl-alanyl-lysine (FAAK), absorbance at 330 nm
Method: HEPES buffered saline (20 mM HEPES, 150 mM NaCl, pH 7.4; hereinafter, referred to as HBS) was used in the preparation of a reaction solution. To 12 μL of a 250 μg/mL TAFI solution, 30 μL of an HBS solution containing 4 U/mL human thrombin, 12 U/mL rabbit lung thrombomodulin, and 12 mM CaCl2 was added, and the mixture was gently stirred. Then, TAFI was activated at room temperature. Ten minutes later, thrombin was neutralized by the addition of 10 μL of 100 μM PPACK (thrombin inhibitor) to terminate the activation of TAFI. The formed TAFIa was stored in ice and diluted immediately before use in determination with 2050 μL of an HBS solution containing BSA (bovine serum albumin) adjusted to 0.1% in terms of the final concentration.
A test substance was dissolved in HBS to prepare a 10-fold dilution series of evaluation concentrations. 80 μl, of the TAFIa solution and 10 μL of the test substance were added to each well of a 96-well plate and mixed by shaking for 10 minutes. 10 μL, of furylacryloyl-alanyl-lysine (FAAK) adjusted to 5 mg/mL was added to each well, and the change in the absorbance of this mixed solution at 330 nm was read for 30 minutes to determine the degradation rate of the substrate.
The degradation rate of the substrate in each well was applied to a standard curve prepared using the dilution series of the TAFIa solution to calculate TAFIa activity. The 50% inhibitory concentration (IC50) was calculated based on the correlation between the concentration of the test compound and the TAFIa activity. Compound A (compound of Example 7 in the pamphlet of International Publication No. WO 2002/014285) was used as a control.

[1] = tested on: iron chloride-induced thrombus models; settings: mice, intravenous administration; cited from earlier work
normal human plasma = test: Fibrinolysis enhancing activity by measurement of time of plasma clot lysis; assay type: biochemical; settings: normal human plasma with tPA; concentration that achieves 50% of 1/2 LT
Method: To a 96-well plate, 20 μL/well HBS, 50 μL/well normal human plasma, 10 μL/well compound solution (the compound solution was prepared by dissolving the compound in HBS, followed by serial dilution with this buffer), and 10 μL/well tPA (Activacin (Kyowa Hakko Kirin Co., Ltd.) was adjusted to 600,000 U/mL with a lysis solution included therein, followed by dilution with HBS) were added, and the mixture was stirred. Then, 10 μL/well reaction solution A (13.8 U/mL human thrombin, 170 mM CaCl2, and 0.9 U/mL thrombomodulin) was added thereto, and the mixture was stirred again. The absorbance at 405 nm was measured using a plate reader at 30-second intervals, with the temperature kept at 37° C. to measure the extent of coagulation. […] A concentration that achieves 50% of 1/2 LT was calculated as EC50 from the relationship between the concentration of the test substance and 1/2 LT. Compound A (compound of Example 7 in the pamphlet of International Publication No. WO 2002/014285) was used as a control.

TAFIa, sequence (Q96IY4 115-423): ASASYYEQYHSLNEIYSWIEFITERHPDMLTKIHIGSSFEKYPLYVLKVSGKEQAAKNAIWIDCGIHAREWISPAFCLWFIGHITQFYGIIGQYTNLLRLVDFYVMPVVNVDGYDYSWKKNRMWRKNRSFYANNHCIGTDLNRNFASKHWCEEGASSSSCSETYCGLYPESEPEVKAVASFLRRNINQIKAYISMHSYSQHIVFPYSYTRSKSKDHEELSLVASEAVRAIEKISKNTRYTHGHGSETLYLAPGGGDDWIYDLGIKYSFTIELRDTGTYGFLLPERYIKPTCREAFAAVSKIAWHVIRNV

Molecule | IC50 (TAFIa) | other results
NCCCC(Cc1cn([C@@H]2C[C@H]3C[C@H]3C2)cn1)C(=O)O (mixture of isomers) [Example 6, (2RS)-5-Amino-2-({1-[(1R,3s,5S)-bicyclo[3.1.0]hexan-3-yl]-1H-imidazol-4-yl}methyl)valeric acid] | 21 nM | 
CCC(CN)CC(Cc1cn([C@H]2CC[C@H](C)CC2)cn1)C(=O)O (stereo partly drawn) [Example 36, 4-(Aminomethyl)-2-{[1-(trans-4-methylcyclohexyl)-1H-imidazol-4-yl]methyl}hexanoic acid hydrochloride] | 10 nM | 
potato carboxypeptidase inhibitor (PCI): TAFIa-inhibiting polypeptide consisting of 39 amino acids (QQHADPICNKPCKTHDDCSGAWFCQACWNSARTCGPYVG; UniProt P01075 1-39, looked up) |  | antithrombotic effect [1]: antithrombotic effect
C[C@H](CN)C[C@H](Cc1cn([C@H]2CC[C@H](C)CC2)cn1)C(=O)O [34(2R,4S form), (2R,4S)-5-Amino-4-methyl-2-{[1-(trans-4-methylcyclohexyl)-1H-imidazol-4-yl]methyl}valeric acid] | 34 nM | 
C[C@@H](CN)C[C@@H](Cc1cn([C@H]2CC[C@H](C)CC2)cn1)C(=O)O [35(2S,4R form), (2S,4R)-5-Amino-4-methyl-2-{[1-(trans-4-methylcyclohexyl)-1H-imidazol-4-yl]methyl}valeric acid] | 5.1 nM | 
C[C@H]1CC[C@H](n2cnc(CC(C(=O)O)N3CC[C@H](N)C3)c2)CC1 (stereo partly drawn) [Example 26, 2-[(3S)-3-Aminopyrrolidin-1-yl]-3-[1-(trans-4-methylcyclohexyl)-1H-imidazol-4-yl]propionic acid] | 21 nM | 
CC1(C)CCCC(n2cnc(CC(CCCN)C(=O)O)c2)C1 (stereo not shown) [Example 33, 5-Amino-2-{[1-(3,3-dimethylcyclohexyl)-1H-imidazol-4-yl]methyl}valeric acid] | 7.5 nM | 
C[C@H](CN)C[C@@H](Cc1cn([C@H]2CC[C@H](C)CC2)cn1)C(=O)O [34(2S,4S form), (2S,4S)-5-Amino-4-methyl-2-{[1-(trans-4-methylcyclohexyl)-1H-imidazol-4-yl]methyl}valeric acid] | 5.4 nM | 
C[C@H]1CC[C@H](n2cnc(CC(OCCN)C(=O)O)c2)CC1 (stereo partly drawn) [Example 24, 2-(2-Aminoethoxy)-3-[1-(trans-4-methylcyclohexyl)-1H-imidazol-4-yl]propionic acid] | 8.1 nM | 
C[C@@H](CN)C[C@H](Cc1cn([C@H]2CC[C@H](C)CC2)cn1)C(=O)O [35(2R,4R form), (2R,4R)-5-Amino-4-methyl-2-{[1-(trans-4-methylcyclohexyl)-1H-imidazol-4-yl]methyl}valeric acid] | > 100 nM | 
NCCCC(Cc1cn(C2C3CC4CC(C3)CC2C4)cn1)C(=O)O (stereo not shown) [Example 13, 2-[(1-Adamantan-2-yl-1H-imidazol-4-yl)methyl]-5-aminovaleric acid] | 12 nM | 
CCC1CC(n2cnc(CC(CCCN)C(=O)O)c2)C1 (stereo not shown) [Example 4, 5-Amino-2-{[1-(3-ethylcyclobutyl)-1H-imidazol-4-yl]methyl}valeric acid] | 14 nM | 
C[C@H](CN)OC(Cc1cn([C@H]2CC[C@H](C)CC2)cn1)C(=O)O (stereo partly drawn) [Example 25, 2-[(1R)-2-Amino-1-methylethoxy]-3-[1-(trans-4-methylcyclohexyl)-1H-imidazol-4-yl]propionic acid] | 7 nM | 

Now from value to molecule, other results behind:

IC50 (TAFIa) | Molecule | other results
9.3 nM | C[C@H]1CC[C@@H](n2cnc(CC(CCCN)C(=O)O)c2)CC1 (stereo partly drawn) [Example 39, 5-Amino-2-{[1-(cis-4-methylcyclohexyl)-1H-imidazol-4-yl]methyl}valeric acid] | 
36 nM | CC1CC(n2cnc(CC(CCCN)C(=O)O)c2)C1 (stereo not shown) [Example 5, 5-Amino-2-{[1-(3-methylcyclobutyl)-1H-imidazol-4-yl]methyl}valeric acid] | 
25 nM | NCCCC(Cc1cn([C@H]2CC3CCC2C3)cn1)C(=O)O (stereo partly drawn) [Example 12, 5-Amino-2-([1-[endo-bicyclo[2.2.1]hept-2-yl]-1H-imidazol-4-yl]methyl)valeric acid] | 
8.8 nM | CC[C@H]1CC[C@H](n2cnc(CC(CCCN)C(=O)O)c2)CC1 (stereo partly drawn) [Example 3, 5-Amino-2-{[1-(trans-4-ethylcyclohexyl)-1H-imidazol-4-yl]methyl}valeric acid] | 
14 nM | NCCCC(Cc1cn([C@@H]2CC3CCC2C3)cn1)C(=O)O (stereo partly drawn) [Example 11, 5-Amino-2-({1-[exo-bicyclo[2.2.1]hept-2-yl]-1H-imidazol-4-yl}methyl)valeric acid] | 
13 nM | NCCCC(Cc1cn([C@H]2CC[C@H](Oc3ccccc3)CC2)cn1)C(=O)O (stereo partly drawn) [Example 14, 5-Amino-2-{[1-(trans-4-phenoxycyclohexyl)-1H-imidazol-4-yl]methyl}valeric acid] | 
8.3 nM | C[C@H]1CC[C@H](n2cnc(CC(CCCN)C(=O)O)c2)CC1 (stereo partly drawn) [Example 2, 5-Amino-2-{[1-(trans-4-methylcyclohexyl)-1H-imidazol-4-yl]methyl}valeric acid] | 
21 nM | NCCCC(Cc1cn(C2CCCCCC2)cn1)C(=O)O (stereo not shown) [Example 10, 5-Amino-2-[(1-cycloheptyl-1H-imidazol-4-yl)methyl]valeric acid] | 
19 nM | CC1(O)CCC(n2cnc(CC(CCCN)C(=O)O)c2)CC1 (stereo not shown) [Example 8, 5-Amino-2-{[1-(4-hydroxy-4-methylcyclohexyl)-1H-imidazol-4-yl]methyl}valeric acid] | 
18 nM | CC1CCCC(n2cnc(CC(CCCN)C(=O)O)c2)C1 (stereo not shown) [Example 9, 5-Amino-2-{[1-(3-methylcyclohexyl)-1H-imidazol-4-yl]methyl}valeric acid] | 
2.6 nM | C[C@H]1CC[C@H](n2cnc(C[C@H](CCCN)C(=O)O)c2)CC1 [Example 40, (2S)-5-Amino-2-{[1-(trans-4-methylcyclohexyl)-1H-imidazol-4-yl]methyl}valeric acid p-toluenesulfonate anhydrate] | 
> 100 nM | C[C@H]1CC[C@H](n2cnc(C[C@@H](CCCN)C(=O)O)c2)CC1 [15(2R form), (2R)-5-Amino-2-{[1-(trans-4-methylcyclohexyl)-1H-imidazol-4-yl]methyl}valeric acid] | 
9.8 nM | NCCCC(Cc1cn([C@H]2CC[C@H](Oc3ccncc3)CC2)cn1)C(=O)O (stereo partly drawn) [Example 38, 5-Amino-2-({1-[trans-4-(pyridin-4-yloxy)cyclohexyl]-1H-imidazol-4-yl}methyl)valeric acid hydrochloride] | 
21 nM | NCCCC(Cc1cn(C2CCCCC2)cn1)C(=O)O (stereo not shown) [Example 1, 5-Amino-2-[(1-cyclohexyl-1H-imidazol-4-yl)methyl]valeric acid] | 
19 nM | NCCCC(Cc1cn([C@H]2CC[C@@H](O)CC2)cn1)C(=O)O (stereo partly drawn) [Example 37, 5-Amino-2-{[1-(cis-4-hydroxycyclohexyl)-1H-imidazol-4-yl]methyl}valeric acid] | 
7.8 nM | C[C@H]1CC[C@H](n2cnc(C[C@H](CCCN)C(=O)O)c2)CC1 [15(2S form), (2S)-5-Amino-2-{[1-(trans-4-methylcyclohexyl)-1H-imidazol-4-yl]methyl}valeric acid] | EC50 (normal human plasma): 12 nM
26 nM | NCCCC(Cc1cn([C@H]2CC[C@H](O)CC2)cn1)C(=O)O (stereo partly drawn) [Example 7, 5-Amino-2-{[1-(trans-4-hydroxycyclohexyl)-1H-imidazol-4-yl]methyl}valeric acid] | 
